Paper PMC2904498 (2010)
Read-outs that look alike come from different tables or passages of the source.

Assays:
[1] = target: T1, T. brucei neutral sphingomyelinase (TbnSMase) (Trypanosoma brucei, UniProt B9WNA2); type: biochemical
T1 sequence (B9WNA2 1-580): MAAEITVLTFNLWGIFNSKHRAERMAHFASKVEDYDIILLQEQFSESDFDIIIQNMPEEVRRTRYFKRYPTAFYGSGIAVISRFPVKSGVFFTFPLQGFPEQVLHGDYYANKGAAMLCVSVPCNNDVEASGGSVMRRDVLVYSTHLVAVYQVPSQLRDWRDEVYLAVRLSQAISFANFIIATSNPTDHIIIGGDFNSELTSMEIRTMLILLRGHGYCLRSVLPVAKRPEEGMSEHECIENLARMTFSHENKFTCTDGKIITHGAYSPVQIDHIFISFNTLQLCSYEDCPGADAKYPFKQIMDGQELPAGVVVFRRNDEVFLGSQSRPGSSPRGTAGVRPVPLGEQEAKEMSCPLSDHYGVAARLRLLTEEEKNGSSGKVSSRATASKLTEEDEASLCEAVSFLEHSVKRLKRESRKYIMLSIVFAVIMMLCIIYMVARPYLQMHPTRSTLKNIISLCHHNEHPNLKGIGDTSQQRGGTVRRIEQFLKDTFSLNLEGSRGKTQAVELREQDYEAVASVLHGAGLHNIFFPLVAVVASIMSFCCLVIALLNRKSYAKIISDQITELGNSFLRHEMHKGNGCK

[2] = target: T1, T. brucei neutral sphingomyelinase (TbnSMase); type: biochemical; remark: listed apart in the source

| IC50 [1] | IC50 [2] | Compound |
| --- | --- | --- |
| 14.4 ± 2.3 µM |  | O=C(/C=C/c1ccc(/C=C/C(=O)Nc2ccc(C3=NCCN3)cc2)cc1)Nc1ccc(C2=NCCN2)cc1 [GW4869] |
| 24.6 ± 4.6 µM |  | CCCC[C@@H](C)/C=C(C)/C=C(\C)C(=O)NC1=C[C@@](O)(/C=C/C=C/C=C/C(=O)NC2=C(O)CCC2=O)[C@@H]2O[C@@H]2C1=O [Manumycin A] |
|  | 21 ± 3.2 µM | CCCCCCCCCCCCCCCCCCOCC(COP(=O)([O-])OCC[N+](C)(C)C)OC (stereo not drawn) [edelfosine] |
